Target: T1, PXR (Homo sapiens, UniProt O75469)
T1 construct: expression construct for the full-length human receptor under investigation; expressed in transfected cells; host or cells: human U2-OS cells (ATCC HTB-96), stably transfected
T1 sequence (O75469 1-434): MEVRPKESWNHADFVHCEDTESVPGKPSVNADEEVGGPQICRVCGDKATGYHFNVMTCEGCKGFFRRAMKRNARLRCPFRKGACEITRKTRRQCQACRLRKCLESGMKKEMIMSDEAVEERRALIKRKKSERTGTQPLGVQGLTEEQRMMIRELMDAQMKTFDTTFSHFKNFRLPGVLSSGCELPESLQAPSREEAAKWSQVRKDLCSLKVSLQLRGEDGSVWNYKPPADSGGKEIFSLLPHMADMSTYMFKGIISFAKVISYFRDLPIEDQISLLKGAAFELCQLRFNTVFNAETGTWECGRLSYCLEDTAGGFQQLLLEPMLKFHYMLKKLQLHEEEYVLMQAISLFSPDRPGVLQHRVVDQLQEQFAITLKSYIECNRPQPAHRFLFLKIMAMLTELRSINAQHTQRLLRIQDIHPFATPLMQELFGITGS
Assay: PXR CALUX reporter gene assay
Format: cell-based
Design: key: –: no effect observed up to the highest test concentration
Conditions: PC10, 24 h exposure
Description: PXR activation leads to the induction of metabolic enzymes, resulting in enhanced metabolism of a wide range of compounds. […]
Polyarylethersulfone of 55,000 Da were obtained from INGE.BASF, Germany. The CALUX cell lines have been described previously.[1] They are based on human U2-OS cells (ATCC, HTB-96) stably transfected with an expression construct for the full-length human receptor under investigation, and a reporter construct consisting of multimerized responsive elements for the cognate receptor coupled to a minimal promoter element (TATA) and a luciferase gene. Cells were maintained as described previously,[2] using cell culture media and supplements from Fisher Scientific as described in the experimental procedures section. […]
In vitro reporter gene assays
The automated CALUX assays were carried out similarly as described earlier,[12] with some adaptations. In brief, the assay was performed in CO2 independent medium (Fisher Scientific, […]
supplement (Fisher Scientific, 11574466), 10 U/mL penicillin and 10 µg/mL streptomycin. A cell suspension in assay medium was made of 1 × 10^5cells/mL, and white 384-wells plates were seeded with 30 µl cell suspension/well. After 24 h, exposure medium was prepared. A dilution series in 0.5log unit increments of each test compound (in DMSO) was added to a 96-wells plate containing assay medium (2% v/v). Of this exposure mixture, 30 µl was added to the assay plates containing the CALUX cells, resulting in a final DMSO concentration of 1%. Additionally, DMSO blanks and a full dose response curve of the relevant reference compound were included on each plate. All samples were tested in triplicate. The preparation of the compound dilution series as well as the exposure of the cells were performed on a Hamilton StarLET liquid handling robot coupled to a Cytomat incubator.
Directly after exposure, plates were sealed with non-breathing plate seals (Plate sealer, easy seal transparent; Greiner-Bio-One, 676001). After 24 h the exposure medium was removed using an EL406 washer-dispenser (BioTek) and 10 µl/well triton lysisbuffer was added by the EL406.
Subsequently, the luciferase signal was measured in a luminometer (InfinitePro coupled to a Connect Stacker, both TECAN). In order to be able to detect receptor antagonism, several assays were also performed in antagonistic mode. The assay procedure was as described above, with the only exception that the EC50 concentration of the reference agonist was present during the exposure.
The luminometer data was analysed as follows; the average of the triplicate wells was determined, and the average blank (DMSO) value was subtracted. For receptor-based assays the maximum response elicited by the reference compound was set to 100% (full receptor- or pathway activation), and the other values were scaled accordingly. GraphPad Prism was used to fit a sigmoidal curve through the data (four parameters, variable slope). […] For antagonist- and cytotoxicity experiments, PC20 values were determined instead, which was defined as the concentration where the test compound causes a 20% decrease in the basal signal, which was […]
curve, the signal induction above background (DMSO) was determined, and the concentration where the compound elicited a 1.5-fold increase above background was used as LEC.

| SMILES | LEC PXR |
| --- | --- |
| CCCCN(CCCC)C(=O)CCC(=O)N(CCCC)CCCC [TBSA, N,N,N′,N′‐tetrabutylsuccindiamide] | −6.1 Log M |
| CCCCN1CCCC1=O [NBP, N‐Butylpyrrolidinone, reference compound] | −3.2 Log M |
| CN1CCCC1=O [NMP, N‐methyl‐2‐pyrrolidone, reference compound] | – |
| CCCCN(CC)C(=O)CCC(=O)N(CC)CCCC [EBSA, N,N′‐diethyl‐N,N′‐dibutylsuccindiamide] | −5.0 Log M |
| CCCCN(C)C(=O)CCC(=O)N(C)CCCC [MBSA, N,N′‐dimethyl‐N,N′‐dibutylsuccindiamide] | −3.9 Log M |

Source: PMC7318222, “A Family of Water‐Immiscible, Dipolar Aprotic, Diamide Solvents from Succinic Acid” (Chemsuschem, 2020)
